We go through six compounds from ChEMBL document CHEMBL5036377, “Improved Metabolically Stable 5-HT Receptor Modulators and the Development of New Antidepressants” (ACS Med Chem Lett, 2022).

Series [1] in a line: Stability in rat brain homogenate assessed as compound remaining measured after 120 mins. It is filed as ADME, tissue-based. Conditions: read-out: Stability.
The nature of series [2]: Stability in human liver mitochondria assessed as compound remaining in presence of MAO-A and MAO-B measured after 60 mins. It is filed as ADME. Conditions: read-out: Stability.
A short description of series [3]: Stability in rat brain homogenate assessed as half life. It is filed as ADME, tissue-based.

As for `CN(C)CCc1c[nH]c2ccccc12`, in series [1], the remaining at 2 h is 0%. Also, in series [2], the remaining at 1 h worked out at 8.9%. For the same compound, in series [3], the half-life (as a rule, the time in which the quantity being followed falls by half) amounted to 0.085 h.
The matching figures for `COc1ccc2[nH]cc(CCN3CCC3)c2c1`: 98%, 106% and > 4.82 h.
`Oc1cccc2[nH]cc(CCN3CCC3)c12`: in series [1], the remaining at 2 h came out at 56.8%. Besides, the remaining at 1 h in series [2] amounted to 88.2%. Also, the half-life in series [3] worked out at 2.91 h.
In the case of `c1ccc2c(CCN3CCC3)c[nH]c2c1`, the remaining at 2 h in series [1] is 91.9%. Moreover, the remaining at 1 h in series [2] turned out to be 85.2%. The half-life in series [3] is > 4.82 h.
The like results for `COc1ccc2[nH]cc(CCN(C)C)c2c1` [MEBUFOTENIN] were, in that order, 0.3%, 47.1% and 0.24 h.
The matching figures for `CN(C)CCc1c[nH]c2cccc(O)c12` [PSILOCIN]: 46.1%, 112% and 1.91 h.
